US20260262643A1, “HERBICIDAL BENZOXAZINES” (FMC CORPORATION, priority 2022, published 2026)

Columns and labels:
pigweed, palmer [1] = assay: Test C preemergence; type: in vivo, Amaranthus palmeri; conditions: preemergence, 0 to 100 scale (0 no effect, 100 complete control)
Summary of the method: (§1)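 Seeds in loam–sand blend received preemergence directed soil spray of test chemicals in non-phytotoxic solvent with surfactant; postemergence treatment was applied at one- to two-leaf stage (2–10 cm). After 10 days in greenhouse, injury rated visually versus untreated controls, 0 (no effect) to 100 (complete control).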

ragweed [2] = assay: Test C postemergence; type: in vivo, Ambrosia artemisiifolia; conditions: 10 days, 0 to 100 scale (0 no effect, 100 complete control)
Summary of the method: as §1

barnyardgrass [3] = assay: Test C preemergence; type: in vivo, Echinochloa crusgalli; conditions: preemergence, 0 to 100 scale (0 no effect, 100 complete control)
Summary of the method: as §1

sedge, umbrella = assay: Test D flooded paddy test; type: in vivo, Cyperus difformis; conditions: 250 g ai/ha, applied to paddy water, visual rating after 13 to 14 days, scale 0 to 100 (0 no effect, 100 complete control)
Summary of the method: (§2)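 2-leaf plants; flood 3 cm above soil; compound dosed into paddy water; greenhouse 13–14 d; visual rating vs controls, 0–100 (100 = complete control); dash = not tested.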

rice = assay: Test D flooded paddy test; type: in vivo, Oryza sativa; conditions: 250 g ai/ha, applied to paddy water, visual rating after 13 to 14 days, scale 0 to 100 (0 no effect, 100 complete control)
Summary of the method: as §2

ducksalad = assay: Test D flooded paddy test; type: in vivo, Heteranthera limosa; conditions: 250 g ai/ha, applied to paddy water, visual rating after 13 to 14 days, scale 0 to 100 (0 no effect, 100 complete control)
Summary of the method: as §2

wheat [4] = assay: Test C preemergence; type: in vivo, Triticum aestivum; conditions: preemergence, 0 to 100 scale (0 no effect, 100 complete control)
Summary of the method: as §1

horseweed = assay: Test C postemergence; type: in vivo, Erigeron canadensis; conditions: 10 days, 0 to 100 scale (0 no effect, 100 complete control)
Summary of the method: as §1

soybean [5] = assay: Test C postemergence; type: in vivo, Glycine max; conditions: 10 days, 0 to 100 scale (0 no effect, 100 complete control)
Summary of the method: as §1

soybean [6] = assay: Test C preemergence; type: in vivo, Glycine max; conditions: preemergence, 0 to 100 scale (0 no effect, 100 complete control)
Summary of the method: as §1

green foxtail [7] = assay: Test C preemergence; type: in vivo, Setaria viridis; conditions: preemergence, 0 to 100 scale (0 no effect, 100 complete control)
Summary of the method: as §1

corn [8] = assay: Test C postemergence; type: in vivo, Zea mays; conditions: 10 days, 0 to 100 scale (0 no effect, 100 complete control)
Summary of the method: as §1

corn [9] = assay: Test C preemergence; type: in vivo, Zea mays; conditions: preemergence, 0 to 100 scale (0 no effect, 100 complete control)
Summary of the method: as §1

oat, wild [10] = assay: Test C preemergence; type: in vivo, Avena fatua; conditions: preemergence, 0 to 100 scale (0 no effect, 100 complete control)
Summary of the method: as §1

pigweed, palmer [11] = assay: Test C postemergence; type: in vivo, Amaranthus palmeri; conditions: 10 days, 0 to 100 scale (0 no effect, 100 complete control)
Summary of the method: as §1

kochia [12] = assay: Test C preemergence; type: in vivo, Bassia scoparia; conditions: preemergence, 0 to 100 scale (0 no effect, 100 complete control)
Summary of the method: as §1

kochia [13] = assay: Test C postemergence; type: in vivo, Bassia scoparia; conditions: 10 days, 0 to 100 scale (0 no effect, 100 complete control)
Summary of the method: as §1

blackgrass [14] = assay: Test C preemergence; type: in vivo, Alopecurus myosuroides; conditions: preemergence, 0 to 100 scale (0 no effect, 100 complete control)
Summary of the method: as §1

green foxtail [15] = assay: Test C postemergence; type: in vivo, Setaria viridis; conditions: 10 days, 0 to 100 scale (0 no effect, 100 complete control)
Summary of the method: as §1

barnyardgrass [16] = assay: Test C postemergence; type: in vivo, Echinochloa crusgalli; conditions: 10 days, 0 to 100 scale (0 no effect, 100 complete control)
Summary of the method: as §1

ragweed [17] = assay: Test C preemergence; type: in vivo, Ambrosia artemisiifolia; conditions: preemergence, 0 to 100 scale (0 no effect, 100 complete control)
Summary of the method: as §1

oat, wild [18] = assay: Test C postemergence; type: in vivo, Avena fatua; conditions: 10 days, 0 to 100 scale (0 no effect, 100 complete control)
Summary of the method: as §1

wheat [19] = assay: Test C postemergence; type: in vivo, Triticum aestivum; conditions: 10 days, 0 to 100 scale (0 no effect, 100 complete control)
Summary of the method: as §1

blackgrass [20] = assay: Test C postemergence; type: in vivo, Alopecurus myosuroides; conditions: 10 days, 0 to 100 scale (0 no effect, 100 complete control)
Summary of the method: as §1

ryegrass, Italian [21] = assay: Test C postemergence; type: in vivo, Lolium multiflorum; conditions: 10 days, 0 to 100 scale (0 no effect, 100 complete control)
Summary of the method: as §1

ryegrass, Italian [22] = assay: Test C preemergence; type: in vivo, Lolium multiflorum; conditions: preemergence, 0 to 100 scale (0 no effect, 100 complete control)
Summary of the method: as §1

barnyardgrass [23] = assay: Test D flooded paddy test; type: in vivo, Echinochloa crus-galli; conditions: 250 g ai/ha, applied to paddy water, visual rating after 13 to 14 days, scale 0 to 100 (0 no effect, 100 complete control)
Summary of the method: as §2

galium = assay: Test C postemergence; type: in vivo, Galium aparine; conditions: 10 days, 0 to 100 scale (0 no effect, 100 complete control)
Summary of the method: as §1

Cc1cccc2c1OC(C(F)(F)F)CN2C(=O)c1cccc(-n2cnc(C(C)C)n2)c1 (racemic) [Compound 301]
20: Plant response rating, Horseweed (horseweed; Postemergence, 125 g ai/ha) | Plant response rating, Oat, Wild (oat, wild [18]; Postemergence, 125 g ai/ha) | Plant response rating, Wheat (wheat [19]; Postemergence, 125 g ai/ha) | Plant response rating, Barnyardgrass (Flood) (barnyardgrass [23])
10: Soybean plant response rating (soybean [6]; Test C, 125 g ai/ha) | Plant response rating, Corn (corn [8]; Postemergence, 125 g ai/ha) | Plant response rating, Pigweed, Palmer (pigweed, palmer [11]; Postemergence, 125 g ai/ha) | Plant response rating, Foxtail, Green (green foxtail [15]; Postemergence, 125 g ai/ha) | Plant response rating, Barnyardgrass (barnyardgrass [16]; Postemergence, 125 g ai/ha)
100: Pigweed, Palmer plant response rating (pigweed, palmer [1]; 500 g ai/ha) | Plant response rating, Soybean (soybean [5]; 500 g ai/ha, postemergence) | Plant response rating, Soybean (soybean [5]; Postemergence, 125 g ai/ha) | Soybean plant response rating (soybean [6]; 500 g ai/ha) | Foxtail, Green plant response rating (green foxtail [7]; 500 g ai/ha) | Foxtail, Green plant response rating (green foxtail [7]; Test C, 125 g ai/ha) | Blackgrass plant response rating (blackgrass [14]; 500 g ai/ha) | Plant response rating, Blackgrass (blackgrass [20]; 500 g ai/ha, postemergence) | Ryegrass, Italian plant response rating (ryegrass, Italian [22]; 500 g ai/ha) | Ryegrass, Italian plant response rating (ryegrass, Italian [22]; Test C, 125 g ai/ha) | Plant response rating, Galium (galium; 500 g ai/ha, postemergence) | Plant response rating, Galium (galium; Postemergence, 125 g ai/ha)
0: Plant response rating, Horseweed (horseweed; 500 g ai/ha, postemergence) | Corn plant response rating (corn [9]; 500 g ai/ha) | Corn plant response rating (corn [9]; Test C, 125 g ai/ha) | Ragweed plant response rating (ragweed [17]; Test C, 125 g ai/ha)
90: Pigweed, Palmer plant response rating (pigweed, palmer [1]; Test C, 125 g ai/ha) | Barnyardgrass plant response rating (barnyardgrass [3]; 500 g ai/ha) | Wheat plant response rating (wheat [4]; 500 g ai/ha) | Oat, Wild plant response rating (oat, wild [10]; 500 g ai/ha) | Kochia plant response rating (kochia [12]; 500 g ai/ha) | Blackgrass plant response rating (blackgrass [14]; Test C, 125 g ai/ha) | Plant response rating, Blackgrass (blackgrass [20]; Postemergence, 125 g ai/ha)
70: Oat, Wild plant response rating (oat, wild [10]; Test C, 125 g ai/ha) | Plant response rating, Foxtail, Green (green foxtail [15]; 500 g ai/ha, postemergence) | Plant response rating, Ryegrass, Italian (ryegrass, Italian [21]; Postemergence, 125 g ai/ha)
80: Plant response rating, Corn (corn [8]; 500 g ai/ha, postemergence) | Kochia plant response rating (kochia [12]; Test C, 125 g ai/ha) | Plant response rating, Kochia (kochia [13]; 500 g ai/ha, postemergence) | Plant response rating, Ryegrass, Italian (ryegrass, Italian [21]; 500 g ai/ha, postemergence)
15: Plant response rating, Rice (Flood) (rice)
60: Plant response rating, Ragweed (ragweed [2]; 500 g ai/ha, postemergence) | Plant response rating, Pigweed, Palmer (pigweed, palmer [11]; 500 g ai/ha, postemergence)
40: Wheat plant response rating (wheat [4]; Test C, 125 g ai/ha) | Plant response rating, Barnyardgrass (barnyardgrass [16]; 500 g ai/ha, postemergence)
55: Plant response rating, Ducksalad (Flood) (ducksalad)
85: Plant response rating, Sedge, Umbrella (Flood) (sedge, umbrella)
30: Plant response rating, Ragweed (ragweed [2]; Postemergence, 125 g ai/ha)
50: Barnyardgrass plant response rating (barnyardgrass [3]; Test C, 125 g ai/ha) | Plant response rating, Kochia (kochia [13]; Postemergence, 125 g ai/ha) | Ragweed plant response rating (ragweed [17]; 500 g ai/ha) | Plant response rating, Oat, Wild (oat, wild [18]; 500 g ai/ha, postemergence) | Plant response rating, Wheat (wheat [19]; 500 g ai/ha, postemergence)
